pEC50: −log10 of the molar value.
Columns and labels:
[1] = system: Aspergillus niger; assay: Antifungal activity against Aspergillus niger assessed as minimum compound concentration per disc required for inhibition zone formation after 50 hrs by disc diffusion assay; format: functional
[2] = Ratio of amphotericin B EC50 to compound EC50 for human erythrocytes; format: ADME, cell-based, Erythrocyte; conditions: read-out: Ratio EC50
[3] = Hemolytic activity against human erythrocytes after 18 hrs by spectrophotometry; format: ADME, cell-based; conditions: Erythrocyte
[4] = Binding affinity to ergosterol-containing palmitoyloleoylphosphatidylcholine membrane at 0.84 uM by UV spectra analysis; format: physicochemical
[5] = Binding affinity to ergosterol-containing palmitoyloleoylphosphatidylcholine membrane at 1.67 uM by UV spectra analysis; format: physicochemical
[6] = Binding affinity to ergosterol-containing palmitoyloleoylphosphatidylcholine membrane by UV spectra analysis; format: physicochemical

SMILES	Activity [1] [µg]	pEC50 [3]	further results
C[C@@H]1[C@H](O)[C@@H](C)/C=C/C=C/C=C/C=C/C=C/C=C/C=C/[C@H](O[C@@H]2O[C@H](C)[C@@H](O)[C@H](NCCCNC(=O)CNC(=O)[C@@H]3[C@@H](O)[C@H](F)[C@@]4(O)C[C@@H](O)C[C@@H](O)[C@H](O)CC[C@@H](O)C[C@@H](O)CC(=O)O[C@@H](C)[C@H](C)[C@H](O)[C@@H](C)/C=C/C=C/C=C/C=C/C=C/C=C/C=C/[C@H](O[C@@H]5O[C@H](C)[C@@H](O)[C@H](N)[C@@H]5O)C[C@@H]3O4)[C@@H]2O)C[C@@H]2O[C@](O)(C[C@@H](O)C[C@@H](O)[C@H](O)CC[C@@H](O)C[C@@H](O)CC(=O)O[C@H]1C)C[C@H](O)[C@H]2C(=O)O[13CH3]	50	4.89	selectivity ratio [2]: 6
COC(=O)[C@H]1[C@@H]2C[C@@H](O[C@@H]3O[C@H](C)[C@@H](O)[C@H](NCCCNC(=O)CNC(=O)[C@H]4[C@@H]5C[C@@H](O[C@@H]6O[C@H](C)[C@@H](O)[C@H](N)[C@@H]6O)/C=C/C=C/C=C/C=C/C=C/C=C/C=C/[C@H](C)[C@@H](O)[C@@H](C)[C@H](C)OC(=O)C[C@H](O)C[C@H](O)CC[C@@H](O)[C@H](O)C[C@H](O)C[C@](O)(C[C@@H]4O)O5)[C@@H]3O)/C=C/C=C/C=C/C=C/C=C/C=C/C=C/[C@H](C)[C@@H](O)[C@@H](C)[C@H](C)OC(=O)C[C@H](O)C[C@H](O)CC[C@@H](O)[C@H](O)C[C@H](O)C[C@](O)(C[C@@H]1O)O2	–	–	Activity [4]: Active
COC(=O)[C@H]1[C@@H]2C[C@@H](O[C@@H]3O[C@H](C)[C@@H](O)[C@H](N)[C@@H]3O)/C=C/C=C/C=C/C=C/C=C/C=C/C=C/[C@H](C)[C@@H](O)[C@@H](C)[C@H](C)OC(=O)C[C@H](O)C[C@H](O)CC[C@@H](O)[C@H](O)C[C@H](O)C[C@](O)(C[C@@H]1O)O2 [AMPHOTERICIN B ME ESTER]	–	–	Activity [5]: Active
C[C@@H]1[C@H](O)[C@@H](C)/C=C/C=C/C=C/C=C/C=C/C=C/C=C/[C@H](O[C@@H]2O[C@H](C)[C@@H](O)[C@H](N)[C@@H]2O)C[C@@H]2O[C@](O)(C[C@@H](O)C[C@@H](O)[C@H](O)CC[C@@H](O)C[C@@H](O)CC(=O)O[C@H]1C)C[C@H](O)[C@H]2C(=O)O [AMPHOTERICIN B]	10	5.70	Activity [6]: Active

— ChEMBL document CHEMBL2146389, “Possible conformation of amphotericin B dimer in membrane-bound assembly as deduced from solid-state NMR” (Bioorg Med Chem, 2012)
